In patent publication US20260193264A1, “BENZOYPARAZINE PYRAZINES AND THEIR USES” (FOGHORN THERAPEUTICS INC., priority 2022, published 2026):

Legend:
[1] = molecular target: T1, HiBiT-BRM fusion protein in stable HeLa cell line (Homo sapiens, UniProt P51531); experiment: HiBiT-BRM cell-based degradation assay (Nano-Glo HiBiT Lytic Detection, 24 h); set-up: DC50: scale not given here; settings: HeLa HiBiT-BRM cells; for DC50: read-out: BRM HiBit Degradation IC50; for BRM HiBit Degradation Maximum (%): top dose 30 μM
T1 construct: expressed in transfected cells
T1 sequence (P51531 whole entry, the tested form may be a part): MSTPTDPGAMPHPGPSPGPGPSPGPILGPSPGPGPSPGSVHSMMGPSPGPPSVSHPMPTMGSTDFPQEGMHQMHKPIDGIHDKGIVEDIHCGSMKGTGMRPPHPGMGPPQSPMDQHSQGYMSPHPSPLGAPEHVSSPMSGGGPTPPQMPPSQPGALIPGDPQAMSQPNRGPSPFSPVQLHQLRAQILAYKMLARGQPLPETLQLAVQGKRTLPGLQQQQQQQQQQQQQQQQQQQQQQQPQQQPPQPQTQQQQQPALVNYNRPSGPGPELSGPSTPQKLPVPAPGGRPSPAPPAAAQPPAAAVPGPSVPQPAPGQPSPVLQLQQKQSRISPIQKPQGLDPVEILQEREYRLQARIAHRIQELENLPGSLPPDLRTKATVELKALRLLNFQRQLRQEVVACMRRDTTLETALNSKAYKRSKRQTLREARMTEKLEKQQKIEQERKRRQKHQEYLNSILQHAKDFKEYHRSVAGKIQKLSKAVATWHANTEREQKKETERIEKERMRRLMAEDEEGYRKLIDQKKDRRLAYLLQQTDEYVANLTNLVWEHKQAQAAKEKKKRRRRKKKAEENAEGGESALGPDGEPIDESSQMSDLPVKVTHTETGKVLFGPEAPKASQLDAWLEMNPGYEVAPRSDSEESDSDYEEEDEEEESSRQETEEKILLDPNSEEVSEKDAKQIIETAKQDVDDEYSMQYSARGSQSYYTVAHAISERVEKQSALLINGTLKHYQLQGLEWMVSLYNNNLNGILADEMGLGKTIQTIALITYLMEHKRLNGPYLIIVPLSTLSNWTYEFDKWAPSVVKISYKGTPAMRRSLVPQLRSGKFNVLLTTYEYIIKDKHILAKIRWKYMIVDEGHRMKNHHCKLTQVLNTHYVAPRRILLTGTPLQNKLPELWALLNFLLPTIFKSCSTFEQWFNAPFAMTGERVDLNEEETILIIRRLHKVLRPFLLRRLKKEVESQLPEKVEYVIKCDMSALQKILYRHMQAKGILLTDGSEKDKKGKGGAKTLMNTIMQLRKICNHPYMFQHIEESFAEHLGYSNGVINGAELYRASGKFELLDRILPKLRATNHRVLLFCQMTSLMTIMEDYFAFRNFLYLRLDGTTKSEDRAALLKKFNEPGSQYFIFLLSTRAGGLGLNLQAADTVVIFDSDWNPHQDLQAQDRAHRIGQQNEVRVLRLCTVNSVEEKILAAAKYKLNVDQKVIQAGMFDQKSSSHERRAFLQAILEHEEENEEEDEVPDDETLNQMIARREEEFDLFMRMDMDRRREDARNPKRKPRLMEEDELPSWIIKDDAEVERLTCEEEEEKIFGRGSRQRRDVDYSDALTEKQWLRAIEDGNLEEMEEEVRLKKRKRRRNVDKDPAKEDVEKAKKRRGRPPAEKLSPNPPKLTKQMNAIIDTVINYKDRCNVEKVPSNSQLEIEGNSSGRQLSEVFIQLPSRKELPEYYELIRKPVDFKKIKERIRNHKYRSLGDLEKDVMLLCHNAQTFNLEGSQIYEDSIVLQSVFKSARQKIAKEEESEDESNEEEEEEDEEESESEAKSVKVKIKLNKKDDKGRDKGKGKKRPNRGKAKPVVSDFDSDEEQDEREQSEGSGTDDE
Summary of the method: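 Stable HiBiT-BRM HeLa cells were treated with 10-point 3-fold serial dilutions (30 μM final top dose, duplicate) for 24 h, then lysed with LgBiT-containing detection reagent and luminescence read. Degradation % was normalised to DMSO (high control) and 2 μM reference BRM/BRG1 degrader (low control).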

[2] = molecular target: T2, HiBit-BRG1 fusion protein in stable HeLa cell line expressing HiBit-BRG1 and LgBit (Homo sapiens, UniProt P51532); experiment: HiBiT-BRG1 cell-based degradation assay (Nano-Glo HiBiT, 24 h); settings: HeLa HiBit-BRG1/LgBit cells; for DC50: read-out: BRMG1 HiBit Degradation IC50; for Dmax: top dose 30 μM, read-out: BRG1 HiBit Degradation Maximum (%)
T2 construct: expressed in transfected cells
T2 sequence (P51532 whole entry, the tested form may be a part): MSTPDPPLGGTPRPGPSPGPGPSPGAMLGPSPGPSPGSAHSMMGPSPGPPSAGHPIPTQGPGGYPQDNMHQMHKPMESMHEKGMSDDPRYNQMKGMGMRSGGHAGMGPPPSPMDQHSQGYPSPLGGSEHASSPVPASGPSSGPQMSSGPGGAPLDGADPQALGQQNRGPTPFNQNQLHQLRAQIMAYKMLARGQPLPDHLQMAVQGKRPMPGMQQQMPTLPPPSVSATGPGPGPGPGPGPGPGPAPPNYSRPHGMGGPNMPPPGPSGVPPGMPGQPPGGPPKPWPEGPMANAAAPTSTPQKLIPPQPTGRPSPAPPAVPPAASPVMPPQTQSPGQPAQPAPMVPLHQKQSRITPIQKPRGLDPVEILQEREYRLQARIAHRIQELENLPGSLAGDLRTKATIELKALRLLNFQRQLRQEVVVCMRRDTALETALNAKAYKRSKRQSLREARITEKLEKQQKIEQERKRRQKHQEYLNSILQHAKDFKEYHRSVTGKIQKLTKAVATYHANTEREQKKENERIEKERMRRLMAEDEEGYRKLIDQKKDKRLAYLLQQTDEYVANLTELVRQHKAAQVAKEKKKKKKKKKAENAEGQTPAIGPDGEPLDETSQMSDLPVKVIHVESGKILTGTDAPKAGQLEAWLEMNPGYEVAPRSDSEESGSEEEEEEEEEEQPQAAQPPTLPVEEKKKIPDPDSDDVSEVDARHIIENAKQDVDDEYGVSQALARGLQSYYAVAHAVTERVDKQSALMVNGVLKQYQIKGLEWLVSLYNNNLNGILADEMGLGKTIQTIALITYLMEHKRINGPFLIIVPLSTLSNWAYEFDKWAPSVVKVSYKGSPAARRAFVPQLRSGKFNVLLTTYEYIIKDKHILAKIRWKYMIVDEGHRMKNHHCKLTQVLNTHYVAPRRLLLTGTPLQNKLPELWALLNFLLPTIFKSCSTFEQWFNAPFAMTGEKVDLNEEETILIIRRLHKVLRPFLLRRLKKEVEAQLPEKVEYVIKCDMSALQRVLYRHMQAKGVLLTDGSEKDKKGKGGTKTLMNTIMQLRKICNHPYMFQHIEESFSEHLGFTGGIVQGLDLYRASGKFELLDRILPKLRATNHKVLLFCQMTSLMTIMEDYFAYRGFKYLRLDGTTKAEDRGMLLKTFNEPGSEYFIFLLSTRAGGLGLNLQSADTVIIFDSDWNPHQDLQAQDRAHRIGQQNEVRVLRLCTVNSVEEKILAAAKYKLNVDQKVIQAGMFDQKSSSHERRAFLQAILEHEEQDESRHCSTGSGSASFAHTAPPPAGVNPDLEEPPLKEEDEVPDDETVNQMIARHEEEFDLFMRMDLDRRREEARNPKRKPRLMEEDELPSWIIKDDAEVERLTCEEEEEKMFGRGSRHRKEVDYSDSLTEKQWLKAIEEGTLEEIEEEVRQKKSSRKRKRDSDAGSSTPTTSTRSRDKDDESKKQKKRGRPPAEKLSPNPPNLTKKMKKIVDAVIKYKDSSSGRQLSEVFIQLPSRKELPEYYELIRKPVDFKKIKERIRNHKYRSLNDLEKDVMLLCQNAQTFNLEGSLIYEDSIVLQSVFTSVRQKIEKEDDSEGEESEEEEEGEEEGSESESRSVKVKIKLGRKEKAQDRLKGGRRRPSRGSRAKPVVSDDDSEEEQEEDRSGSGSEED
Summary of the method: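 Stable HeLa line co-expressing HiBiT-BRG1 and LgBiT, compound-treated 24 h; luminescence read after Nano-Glo HiBiT lytic reagent. % degradation normalised between DMSO (high control) and 2 μM reference BRM/BRG1 degrader (low control).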

For `Cc1ncsc1-c1ccc([C@H](C)NC(=O)[C@@H]2C[C@@H](O)CN2C(=O)[C@H](C(C)C)n2cc(N3CC4(CN(c5ccc6nnc(-c7ccccc7O)cc6c5)C4)C3)nn2)cc1` [Compound 172, (2S,4R)-4-hydroxy-1-((S)-2-(4-(6-(3-(2-hydroxyphenyl)cinnolin-6-yl)-2,6-diazaspiro[3.3]heptan-2-yl)-1H-1,2,3-triazol-1-yl)-3-methylbutanoyl)-N-((S)-1-(4-(4-methylthiazol-5-yl)phenyl)ethyl)pyrrolidine-2-carboxamide], the DC50 [1] was under 10 nM, the “BRM HiBit Degradation Maximum (%)” value [1] was “A (“A” indicates maximum degradation ≥75%)” and the DC50 [2] was under 10 nM. It also gave a Dmax [2] of over 50%.
With `Cc1ncsc1-c1ccc([C@H](C)NC(=O)[C@@H]2C[C@@H](O)CN2C(=O)[C@@H](c2cc(N3CC4(CN(c5cc(C#N)c6cc(-c7ccccc7O)nnc6c5)C4)C3)no2)C(C)C)cc1` [Compound 173, (2S,4R)-1-((R)-2-(3-(6-(5-cyano-3-(2-hydroxyphenyl)cinnolin-7-yl)-2,6-diazaspiro [3.3]heptan-2-yl)isoxazol-5-yl)-3-methylbutanoyl)-4-hydroxy-N-((S)-1-(4-(4-methylthiazol-5-yl)phenyl)ethyl)pyrrolidine-2-carboxamide] the DC50 [1] was over 10 nM, the “BRM HiBit Degradation Maximum (%)” value [1] was “B (“B” indicates maximum degradation ≥50%)” and the Dmax [2] was under 50%.
In the case of `Cc1ncsc1-c1ccc([C@H](C)NC(=O)[C@@H]2C[C@@H](O)CN2C(=O)[C@@H](c2cccc(N3CC4(C3)CN(c3ccc5cc(-c6ccccc6O)nnc5c3)C4)c2)C(C)C)cc1` [Compound 174, (2S,4R)-4-hydroxy-1-((R)-2-(3-(6-(3-(2-hydroxyphenyl)cinnolin-7-yl)-2,6-diazaspiro[3.3]heptan-2-yl)phenyl)-3-methylbutanoyl)-N—((S)-1-(4-(4-methylthiazol-5-yl)phenyl)ethyl)pyrrolidine-2-carboxamide], the DC50 [1] is reported as over 10 nM, the “BRM HiBit Degradation Maximum (%)” value [1] is reported as “A (“A” indicates maximum degradation ≥75%)” and the Dmax [2] is reported as under 50%.
In the case of `Cc1ncsc1-c1ccc([C@H](C)NC(=O)[C@@H]2C[C@@H](O)CN2C(=O)[C@@H](c2ccnc(N3CC4(CN(c5ccc6cc(-c7ccccc7O)nnc6c5)C4)C3)c2)C(C)C)cc1` [Compound 175, (2S,4R)-4-hydroxy-1-[(2R)-2-(2-{6-[3-(2-hydroxyphenyl)cinnolin-7-yl]-2,6-diazaspiro[3.3]heptan-2-yl}pyridin-4-yl)-3-methylbutanoyl]-N-[(1S)-1-[4-(4-methyl-1,3-thiazol-5-yl)phenyl]ethyl]pyrrolidine-2-carboxamide], the DC50 [1] is reported as over 10 nM, the “BRM HiBit Degradation Maximum (%)” value [1] is reported as “A (“A” indicates maximum degradation ≥75%)” and the Dmax [2] is reported as under 50%.
`Cc1ncsc1-c1ccc([C@H](C)NC(=O)[C@@H]2C[C@@H](O)CN2C(=O)[C@H](C(C)C)n2cc(-c3cc4cc(-c5ccccc5O)nnc4cc3F)nn2)cc1` [Compound 176, (2S,4R)-1-((S)-2-(4-(7-fluoro-3-(2-hydroxyphenyl)cinnolin-6-yl)-1H-1,2,3-triazol-1-yl)-3-methylbutanoyl)-4-hydroxy-N-((S)-1-(4-(4-methylthiazol-5-yl)phenyl)ethyl)pyrrolidine-2-carboxamide] was tested, and the DC50 [1] was under 10 nM, the “BRM HiBit Degradation Maximum (%)” value [1] was “A (“A” indicates maximum degradation ≥75%)” and the DC50 [2] was under 10 nM. It also gave a Dmax [2] of over 75%.
For `CC(C)[C@@H](C(=O)N1C[C@H](O)C[C@H]1C(=O)N[C@@H](C)c1ccc(F)cc1)n1cc(-c2ccc3nnc(-c4cccc(F)c4O)cc3c2)nn1` [Compound 177, (2S,4R)-1-((S)-2-(4-(3-(3-fluoro-2-hydroxyphenyl)cinnolin-6-yl)-1H-1,2,3-triazol-1-yl)-3-methylbutanoyl)-N-((S)-1-(4-fluorophenyl)ethyl)-4-hydroxypyrrolidine-2-carboxamide], the DC50 [1] was under 10 nM, the “BRM HiBit Degradation Maximum (%)” value [1] was “A (“A” indicates maximum degradation ≥75%)” and the DC50 [2] was over 10 nM. It also gave a Dmax [2] of over 75%.
For `CC(C)[C@@H](C(=O)N1C[C@H](O)C[C@H]1C(=O)N[C@@H](C)c1ccc(Br)cc1)n1cc(-c2ccc3nnc(-c4cccc(F)c4O)cc3c2)nn1` [Compound 178, (2S,4R)-N-((S)-1-(4-bromophenyl)ethyl)-1-((S)-2-(4-(3-(3-fluoro-2-hydroxyphenyl)cinnolin-6-yl)-1H-1,2,3-triazol-1-yl)-3-methylbutanoyl)-4-hydroxypyrrolidine-2-carboxamide], the DC50 [1] was under 10 nM, the “BRM HiBit Degradation Maximum (%)” value [1] was “A (“A” indicates maximum degradation ≥75%)” and the DC50 [2] was over 10 nM. It also gave a Dmax [2] of over 75%.
In the case of `Cc1ncsc1-c1ccc([C@H](C)NC(=O)[C@@H]2C[C@@H](O)CN2C(=O)[C@@H](c2cc(N3CC4(C3)CN(c3cc5nnc(-c6ccccc6O)cc5cc3F)C4)no2)C(C)C)cc1` [Compound 179, (2S,4R)-1-((R)-2-(3-(6-(6-fluoro-3-(2-hydroxyphenyl)cinnolin-7-yl)-2,6-diazaspiro [3.3]heptan-2-yl)isoxazol-5-yl)-3-methylbutanoyl)-4-hydroxy-N-((S)-1-(4-(4-methylthiazol-5-yl)phenyl)ethyl)pyrrolidine-2-carboxamide], the DC50 [1] is reported as under 10 nM, the “BRM HiBit Degradation Maximum (%)” value [1] is reported as “A (“A” indicates maximum degradation ≥75%)” and the Dmax [2] is reported as under 50%.
`Cc1ncsc1-c1ccc([C@H](C)NC(=O)[C@@H]2C[C@@H](O)CN2C(=O)[C@@H](c2cc(N3CC4(C3)CN(c3cc5nnc(-c6cccc(F)c6O)cc5cc3C3CC3)C4)no2)C(C)C)cc1` [Compound 180, (2S,4R)-1-((R)-2-(3-(6-(6-cyclopropyl-3-(3-fluoro-2-hydroxyphenyl)cinnolin-7-yl)-2,6-diazaspiro[3.3]heptan-2-yl)isoxazol-5-yl)-3-methylbutanoyl)-4-hydroxy-N-((S)-1-(4-(4-methylthiazol-5-yl)phenyl)ethyl)pyrrolidine-2-carboxamide] was tested, and the DC50 [1] was under 10 nM, the “BRM HiBit Degradation Maximum (%)” value [1] was “A (“A” indicates maximum degradation ≥75%)” and the Dmax [2] was under 50%.
With `CNC(=O)[C@@H]1C[C@@H](O)CN1C(=O)[C@@H](c1cc(N2CC3(CN(c4ccc5nnc(-c6ccccc6O)cc5c4)C3)C2)no1)C(C)C` [Compound 181, (2S,4R)-4-hydroxy-1-((R)-2-(3-(6-(3-(2-hydroxyphenyl)cinnolin-6-yl)-2,6-diazaspiro[3.3]heptan-2-yl)isoxazol-5-yl)-3-methylbutanoyl)-N-methylpyrrolidine-2-carboxamide] the DC50 [1] was over 100 nM, the “BRM HiBit Degradation Maximum (%)” value [1] was “A (“A” indicates maximum degradation ≥75%)” and the Dmax [2] was under 50%.
For `Cc1ncsc1-c1ccc([C@H](C)NC(=O)[C@@H]2C[C@@H](O)CN2C(=O)[C@@H](c2cc(N3CCC(Oc4ccc5nnc(-c6ccccc6O)cc5c4)CC3)no2)C(C)C)cc1` [Compound 182, (2S,4R)-4-hydroxy-1-((R)-2-(3-(4-((3-(2-hydroxyphenyl)cinnolin-6-yl)oxy)piperidin-1-yl)isoxazol-5-yl)-3-methylbutanoyl)-N-((S)-1-(4-(4-methylthiazol-5-yl)phenyl)ethyl)pyrrolidine-2-carboxamide], the DC50 [1] was under 10 nM, the “BRM HiBit Degradation Maximum (%)” value [1] was “A (“A” indicates maximum degradation ≥75%)” and the DC50 [2] was over 10 nM. For the same molecule, the Dmax [2] was over 75%.
